Measured values: US9765074B2, “Inhibitors of the renal outer medullary potassium channel” (Merck Sharp & Dohme Corp., priority 2013, dated 2017)
pIC50: −log10 of the molar value.

Each compound was assayed against T1, hROMK (hKir1.1) (Homo sapiens, UniProt P48048) (assay: Thallium Flux Assay (ROMK channel functional thallium flux, FLIPR-Tetra)). Conditions: HEK293 cells stably expressing hROMK (hKir1.1); 30 min compound incubation.
T1 construct: expressed in transfected cells
T1 sequence (P48048 1-391): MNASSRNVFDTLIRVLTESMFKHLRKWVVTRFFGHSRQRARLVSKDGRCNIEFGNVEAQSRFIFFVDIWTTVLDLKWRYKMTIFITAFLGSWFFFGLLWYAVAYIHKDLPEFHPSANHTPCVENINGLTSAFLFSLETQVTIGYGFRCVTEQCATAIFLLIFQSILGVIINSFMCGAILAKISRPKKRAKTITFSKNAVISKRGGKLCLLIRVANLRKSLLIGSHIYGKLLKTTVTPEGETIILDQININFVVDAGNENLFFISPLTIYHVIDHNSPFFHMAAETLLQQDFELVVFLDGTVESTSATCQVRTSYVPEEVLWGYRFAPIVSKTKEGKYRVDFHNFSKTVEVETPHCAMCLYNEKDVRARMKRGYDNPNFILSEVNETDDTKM
Type: cell-based
In short: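 Thallium flux read by FluxOR fluorescence ([…]) for ~10 min after adding 3 mM Tl+/0.3 mM K+ final. Stable HEK-hKir1.1 cells were dye-loaded 90 min, exposed to compound 30 min at room temperature in ouabain/probenecid buffer; IC50 relative to a 3 μM control inhibitor.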
`CC1=C(N2CCC3(CCN(C[C@H](O)c4ncc(-n5cnnn5)cc4C)CC3)C2=O)COC1=O` [Example 28, 8-{(2S)-2-hydroxy-2-[3-methyl-5-(1H-tetrazol-1-yl)pyridin-2-yl]ethyl}-2-(4-methyl-5-oxo-2,5-dihydrofuran-3-yl)-1-oxo-2-aza-8-azoniaspiro[4.5]decane] gave a pIC50 of 7.52.
`CC1CC2(CCN(C(C)(C)C(O)c3cnc(-n4cnnn4)cn3)CC2)C(=O)N1C1=CC(=O)OC1` (single isomer, unassigned) [Example 302, 8-(1-(5-(1H-tetrazol-1-yl)pyrazin-2-yl)-1-hydroxy-2-methylpropan-2-yl)-3-methyl-2-(5-oxo-2,5-dihydrofuran-3-yl)-2,8-diazaspiro[4.5]decan-1-one] gave a pIC50 of 7.00.
With `CC1=C(N2CCC3(CC4CCC(C3)N4C[C@H](O)c3ccc(-n4cnnn4)nn3)C2=O)COC1=O` (stereo partly drawn) [Example 52, (1R,5R)-8-{(2S)-2-hydroxy-2-[6-(1H-tetrazol-1-yl)pyridazin-3-yl]ethyl}-1′-(4-methyl-5-oxo-2,5-dihydrofuran-3-yl)-2′-oxospiro[8-azoniabicyclo[3.2.1]octane-3,3′-pyrrolidine]] the pIC50 was 8.00.
Work on `Cc1cc(-n2cnnn2)ccc1[C@H](O)CN1CCC2(CC1)CCN(C1=CC(=O)OC1)C2=O` [Example 12, 8-{(2S)-2-hydroxy-2-[2-methyl-4-(1H-tetrazol-1-yl)phenyl]ethyl}-1-oxo-2-(5-oxo-2,5-dihydrofuran-3-yl)-2-aza-8-azoniaspiro[4.5]decane] yielded a pIC50 of 8.00.
Compound `CC1=C(N2C(=O)C3(CC2C)CC2CCC(C3)N2C[C@@H](O)c2ccc(-n3cnnn3)nc2)COC1=O` (single isomer, unassigned) [Example 136] has a pIC50 of 7.10.
For `COCC1=C(N2CCC3(CCN(C[C@H](O)c4cnc(-n5cnnn5)cn4)CC3)C2=O)COC1=O` [Example 200, 8-{(2S)-2-hydroxy-2-[5-(1H-tetrazol-1-yl)pyrazin-2-yl]ethyl}-2-[4-(methoxymethyl)-5-oxo-2,5-dihydrofuran-3-yl]-2,8-diazaspiro[4.5]decan-1-one], the pIC50 was 7.10.
`O=C1C=C(N2CCC3(CCN(C[C@@H](O)c4ccc(-n5cnnn5)nc4)CC3)C2=O)CO1` (single isomer, unassigned) [Example 2] showed a pIC50 of 7.30.
In the case of `CC1=C(N2CCC3(CCN(C[C@@H](O)c4cnc(-n5cnnn5)cn4)CC3)C2=O)COC1=O` [Example 25, 8-{(2R)-2-hydroxy-2-[5-(1H-tetrazol-1-yl)pyrazin-2-yl]ethyl}-2-(4-methyl-5-oxo-2,5-dihydrofuran-3-yl)-1-oxo-2-aza-8-azoniaspiro[4.5]decane], the pIC50 was 7.52.
With `CC1=C(N2C=CC3(CCN([C@H](C)Cc4nnc(-n5cnnn5)cc4C)CC3)C2=O)COC1=O` (single isomer, unassigned) [Example 275] the pIC50 was 8.40.
Work on `CC1=CC2(CCN(C[C@H](O)c3cnc(-n4cnnn4)cn3)CC2)C(=O)N1C1=CC(=O)OC1` [Example 187, 8-{(2S)-2-hydroxy-2-[5-(1H-tetrazol-1-yl)pyrazin-2-yl]ethyl}-3-methyl-2-(5-oxo-2,5-dihydrofuran-3-yl)-2,8-diazaspiro[4.5]dec-3-en-1-one] yielded a pIC50 of 7.00.
`CC1=C(N2C=CC3(CCN(CCc4ncc(-n5cnnn5)nc4C)CC3)C2=O)COC1=O` [Example 263, 2-(4-methyl-5-oxo-2,5-dihydrofuran-3-yl)-8-{2-[3-methyl-5-(1H-tetrazol-1-yl)pyrazin-2-yl]ethyl}-1-oxo-2-aza-8-azoniaspiro[4.5]dec-3-ene] showed a pIC50 of 8.00.
With `O=C1C=C(N2C(=O)C3(CCN(C[C@H](O)c4cnc(-n5cnnn5)cn4)CC3)CC2C2CC2)CO1` (mixture of isomers) [Example 213, 3-cyclopropyl-8-{(2S)-2-hydroxy-2-[5-(1H-tetrazol-1-yl)pyrazin-2-yl]ethyl}-2-(5-oxo-2,5-dihydrofuran-3-yl)-2,8-diazaspiro[4.5]decan-1-one] the pIC50 was 7.40.
`CC1CC2(CC3CCC(C2)N3C[C@H](O)c2ccc(-n3cnnn3)nc2)C(=O)N1C1=CC(=O)OC1` (single isomer, unassigned) [Example 100] gave a pIC50 of 8.00.
With `CC1=C(N2CCC3(CCN(C[C@H](O)c4cnc(-n5cnnn5)cn4)CC3)C2=O)COC1=O` [Example 24, 8-{(2S)-2-hydroxy-2-[5-(1H-tetrazol-1-yl)pyrazin-2-yl]ethyl}-2-(4-methyl-5-oxo-2,5-dihydrofuran-3-yl)-1-oxo-2-aza-8-azoniaspiro[4.5]decane] the pIC50 was 7.70.
`CCC1CC2(CCN(C[C@H](O)c3cnc(-n4cnnn4)cn3)CC2)C(=O)N1C1=CC(=O)OC1` (mixture of isomers) [Example 221, 3-ethyl-8-{(2S)-2-hydroxy-2-[5-(1H-tetrazol-1-yl)pyrazin-2-yl]ethyl}-2-(5-oxo-2,5-dihydrofuran-3-yl)-2,8-diazaspiro[4.5]decan-1-one] was tested, and the pIC50 was 7.52.
`CC1=C(N2CCC3(CCN(C[C@H](O)c4ccc(-n5cnnn5)nc4C)CC3O)C2=O)COC1=O` (single isomer, unassigned) [Example 203] was tested, and the pIC50 was 6.82.
With `CC1=C(N2C=CC3(CCN([C@@H](C)Cc4ccc(-n5cnnn5)nn4)CC3)C2=O)COC1=O` (single isomer, unassigned) [Example 272] the pIC50 was 8.00.
`CC1=C(N2CCC3(CCN(C[C@@H](F)c4ccc(-n5cnnn5)cn4)CC3)C2=O)COC1=O` [Example 280, 8-{(2R)-2-fluoro-2-[5-(1H-tetrazol-1-yl)pyridin-2-yl]ethyl}-2-(4-methyl-5-oxo-2,5-dihydrofuran-3-yl)-1-oxo-2-aza-8-azoniaspiro[4.5]decane] was tested, and the pIC50 was 7.52.
Compound `CC1=C(N2CCC3(CCN(C[C@@H](O)c4ccc(-n5cnnn5)cc4F)CC3)C2=O)COC1=O` [Example 37, 8-{(2S)-2-[2-fluoro-4-(1H-tetrazol-1-yl)phenyl]-2-hydroxyethyl}-2-(4-methyl-5-oxo-2,5-dihydrofuran-3-yl)-1-oxo-2-aza-8-azoniaspiro[4.5]decane] has a pIC50 of 8.00.
`CC1=C(N2CCC3(CCN(C[C@@H](O)c4ncc(-n5cnnn5)cn4)CC3)C2=O)COC1=O` [Example 41, 8-{(2R)-2-hydroxy-2-[5-(1H-tetrazol-1-yl)pyrimidin-2-yl]ethyl}-2-(4-methyl-5-oxo-2,5-dihydrofuran-3-yl)-1-oxo-2-aza-8-azoniaspiro[4.5]decane] showed a pIC50 of 6.80.
For `CC1=C(N2CC(=O)C3(CCN(C[C@H](O)c4ccc(-n5cnnn5)nc4)CC3)C2=O)COC1=O` [Example 97, 8-{(2R)-2-hydroxy-2-[6-(1H-tetrazol-1-yl)pyridin-3-yl]ethyl}-2-[4-methyl-5-oxo-2,5-dihydrofuran-3-yl)-1,4-dioxo-2-aza-8-azoniaspiro[4.5]decane], the pIC50 was 7.70.
Compound `CC1=C(N2C=CC3(CCN(CCc4cnc(-n5cnnn5)cn4)CC3)C2=O)COC1=O` [Example 251, 2-(4-methyl-5-oxo-2,5-dihydrofuran-3-yl)-1-oxo-8-{2-[5-(1H-tetrazol-1-yl)pyrazin-2-yl]ethyl}-2-aza-8-azoniaspiro[4.5]dec-3-ene] has a pIC50 of 7.30.
`COC1CN(C[C@H](O)c2ccc(-n3cnnn3)nc2)CCC12CCN(C1=C(C)C(=O)OC1)C2=O` (single isomer, unassigned) [Example 170] showed a pIC50 of 7.40.
In the case of `CC1=C(N2CC(O)C3(CCN(CCc4ccc(-n5cnnn5)nn4)CC3)C2=O)COC1=O` (single isomer, unassigned) [Example 243, 4-hydroxy-2-(4-methyl-5-oxo-2,5-dihydrofuran-3-yl)-1-oxo-8-{2-[6-(1H-tetrazol-1-yl)pyridazin-3-yl]ethyl}-2-aza-8-azoniaspiro[4.5]decane], the pIC50 was 6.68.
